Non-standard residues stand in square brackets, D forms with d. hArg = N=C(N)NCCCC[C@H](N)C(=O)O; Cit = NC(=O)NCCC[C@H](N)C(=O)O; Orn = NCCC[C@H](N)C(=O)O
Test system: murine E^k MHC class II allele
Assay: simultaneous assay, E^k allele (CH27 APC, TPc9.1 T hybridoma, THMCC82-103 or PGCC81-104)
Format: cell-based
Conditions: for activity in simultaneous assay on E^k, in words: Tables 2 and 18
How it was run: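 Read-out is [3H]TdR incorporation into HT-2 indicator cells exposed to supernatant from a 24 h primary culture. That culture combined mitomycin C-treated APC (5×10^6 cells/mL, 0.025 mg/mL mitomycin C, 20 min, 37° C), peptide, effector compound and T hybridoma, all added at once.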

[1] = Table 13, AE peptide 1 μM (fourth value), supernatant 1:4
[2] = Table 13, AE peptide 4 μM (third value), supernatant 1:4
[3] = Table 13, AE peptide 16 μM (second value), supernatant 1:4
[4] = Table 13, AE peptide 64 μM (first value), supernatant 1:4
[5] = Table 14, AE peptide 64 μM, supernatant 1:4
[6] = Table 10, AE peptide 64 μM, supernatant 1:2 (first value)
[7] = Table 10, AE peptide 64 μM, supernatant 1:4 (second value)
[8] = Table 15, AE peptide 16 μM, supernatant 1:4
[9] = Table 2, AE peptide 64 μM, 0.05 μM PGCC81-104, supernatant 1:2
[10] = Table 11, AE peptide 64 μM, supernatant 1:4
[11] = Table 5, AE peptide 64 μM, supernatant 1:4, normalized to E^d by a factor of 10
[12] = Table 16, AE peptide 4 μM, supernatant 1:8
[13] = Table 6, AE peptide 64 μM, supernatant 1:4, reduced by a factor of 5
[14] = Table 7, AE peptide 64 μM, supernatant 1:4, normalized by a factor of 5
[15] = Table 17, AE peptide 64 μM, supernatant 1:4
[16] = Table 18, AE peptide 64 μM, supernatant 1:4
[17] = Table 9, AE peptide 64 μM, supernatant 1:4, normalized by a factor of 5
[18] = Table 1, AE peptide 16 μM (second value), 0.075 μM THMCC82-103, supernatant 1:2
[19] = Table 1, AE peptide 64 μM (first value), 0.075 μM THMCC82-103, supernatant 1:2
[20] = Table 4, AE109 homolog 64 μM, supernatant 1:2

Ac- (mL) RMKLPK-NH2 [AE174]
Times Baseline Response, E^k [1]: 1.6 | Times Baseline Response, E^k [2]: 3.1 | Times Baseline Response, E^k [3]: 9.8 | Times Baseline Response, E^k [4]: 35.1 | Times Baseline Response, E^k [5]: 34.3

Ac-ARMKLPKSAK-NH2 [AE120]
Times Baseline Response, E^k [6]: 36.8 | Times Baseline Response, E^k [7]: 34.9 | Times Baseline Response, E^k [8]: 4.8

Ac-ARMKNPK-NH2 [AE345]
Times Baseline Response, E^k [8]: 4.8

Ac-ARNKLPK-NH2 [AE344]
Times Baseline Response, E^k [8]: 2.5

Ac-ARNKNPF-NH2 [AE347]
Times Baseline Response, E^k [8]: 2.8

Ac-ARNKNPK-NH2 [AE346]
Times Baseline Response, E^k [8]: 1.8

Ac-DSLRMKLPKSAK-NH2 [AE154]
Times Baseline Response, E^k [9]: 2.2

Ac-L r MKLPK-NH2 [AE161]
Times Baseline Response, E^k [10]: 1.1

Ac-LDSLRMKLPKSAK-NH2 [AE153]
Times Baseline Response, E^k [9]: 1.4

Ac-LQLDSLRMKLPKSAK-NH2 [AE151]
Times Baseline Response, E^k [9]: 0.6 | activity in simultaneous assay on E^k, in words: inhibition

Ac-LR (mL) KLPK-NH2 [AE302]
Times Baseline Response, E^k [5]: 26.1

Ac-LR (mL) KYPK-NH2 [AE303]
Times Baseline Response, E^k [5]: 25.3

Ac-LR (mL) KYPk-NH2 [AE305]
Times Baseline Response, E^k [5]: 26.8

Ac-LR (mL) KyPK-NH2 [AE304]
Times Baseline Response, E^k [5]: 13.4

Ac-LR (mL) KyPk-NH2 [AE306]
Times Baseline Response, E^k [5]: 13.7

Ac-LR HArg KLPK-NH2 [AE197]
Times Baseline Response, E^k [11]: 39.9 | Times Baseline Response, E^k [12]: 1.7

Ac-LR L KLPK-NH2 (Ac-LRLKLPK-NH2; not fully specified; printed as Ac-LR L KLPK-NH2) [AE206]
Times Baseline Response, E^k [11]: 33.9 | Times Baseline Response, E^k [5]: 53.5 | Times Baseline Response, E^k [8]: 35.3 | Times Baseline Response, E^k [12]: 1.3

Ac-LR N KLPK-NH2 (Ac-LRNKLPK-NH2) [AE202]
Times Baseline Response, E^k [11]: 9.3 | Times Baseline Response, E^k [8]: 5.8

Ac-LR m KLPK-NH2 [AE162]
Times Baseline Response, E^k [10]: 1.3

Ac-LRLK HArg PK-NH2 [AE341]
Times Baseline Response, E^k [8]: 42.4

Ac-LRLKWPK-NH2 [AE309]
Times Baseline Response, E^k [5]: 48.2 | Times Baseline Response, E^k [8]: 38.0 | Times Baseline Response, E^k [12]: 1.8

Ac-LRLKYPK-NH2 [AE301]
Times Baseline Response, E^k [5]: 59.9 | Times Baseline Response, E^k [8]: 46.6 | Times Baseline Response, E^k [12]: 15.5

Ac-LRLKYPk-NH2 [AE307]
Times Baseline Response, E^k [5]: 56.4

Ac-LRLKyPK-NH2 [AE308]
Times Baseline Response, E^k [5]: 45.5

Ac-LRM M LPK-NH2 (Ac-LRMMLPK-NH2) [AE220]
Times Baseline Response, E^k [13]: 12.5 | Times Baseline Response, E^k [12]: 1.1

Ac-LRM k LPK-NH2 [AE163]
Times Baseline Response, E^k [10]: 1.1

Ac-LRMK (mL) PK-NH2 [AE175]
Times Baseline Response, E^k [1]: 2.8 | Times Baseline Response, E^k [2]: 6.5 | Times Baseline Response, E^k [3]: 28.5 | Times Baseline Response, E^k [4]: 59.0 | Times Baseline Response, E^k [5]: 58.0

Ac-LRMK Cit PK-NH2 (Ac-LRMK[Cit]PK-NH2; SMILES CSCC[C@H](NC(=O)[C@H](CCCNC(=N)N)NC(=O)[C@H](CC(C)C)NC(C)=O)C(=O)N[C@@H](CCCCN)C(=O)N[C@@H](CCCNC(N)=O)C(=O)N1CCC[C@H]1C(=O)N[C@@H](CCCCN)C(N)=O) [AE226]
Times Baseline Response, E^k [14]: 9.0

Ac-LRMK D PK-NH2 (Ac-LRMKDPK-NH2) [AE230]
Times Baseline Response, E^k [14]: 1.1

Ac-LRMK E PK-NH2 (Ac-LRMKEPK-NH2) [AE231]
Times Baseline Response, E^k [14]: 1.2

Ac-LRMK F PK-NH2 (Ac-LRMKFPK-NH2) [AE234]
Times Baseline Response, E^k [14]: 16.6

Ac-LRMK H PK-NH2 (Ac-LRMKHPK-NH2) [AE228]
Times Baseline Response, E^k [14]: 20.3

Ac-LRMK HArg PK-NH2 (Ac-LRMK[hArg]PK-NH2; SMILES CSCC[C@H](NC(=O)[C@H](CCCNC(=N)N)NC(=O)[C@H](CC(C)C)NC(C)=O)C(=O)N[C@@H](CCCCN)C(=O)N[C@@H](CCCCNC(=N)N)C(=O)N1CCC[C@H]1C(=O)N[C@@H](CCCCN)C(N)=O) [AE227]
Times Baseline Response, E^k [14]: 20.5 | Times Baseline Response, E^k [8]: 45.6

Ac-LRMK K PK-NH2 (Ac-LRMKKPK-NH2) [AE229]
Times Baseline Response, E^k [14]: 16.2

Ac-LRMK M PK-NH2 (Ac-LRMKMPK-NH2) [AE236]
Times Baseline Response, E^k [14]: 16.9

Ac-LRMK N PK-NH2 (Ac-LRMKNPK-NH2) [AE232]
Times Baseline Response, E^k [14]: 8.9 | Times Baseline Response, E^k [8]: 15.5

Ac-LRMK Q PK-NH2 (Ac-LRMKQPK-NH2) [AE233]
Times Baseline Response, E^k [14]: 17.0

Ac-LRMK Y PK-NH2 (Ac-LRMKYPK-NH2; not fully specified; printed as Ac-LRMK Y PK-NH2) [AE235]
Times Baseline Response, E^k [14]: 21.8 | Times Baseline Response, E^k [5]: 56.6 | Times Baseline Response, E^k [8]: 47.7 | Times Baseline Response, E^k [12]: 8.4 | Times Baseline Response, E^k [15]: 26.8 | Times Baseline Response, E^k [16]: 56.6

Ac-LRMK l PK-NH2 [AE164]
Times Baseline Response, E^k [10]: 3.8 | Times Baseline Response, E^k [5]: 43.9

Ac-LRMKL p K-NH2 [AE165]
Times Baseline Response, E^k [10]: 3.6

Ac-LRMKLP F-NH2 (Ac-LRMKLPF-NH2) [AE248]
Times Baseline Response, E^k [17]: 16.3 | Times Baseline Response, E^k [8]: 42.6

Ac-LRMKLP N-NH2 (Ac-LRMKLPN-NH2) [AE246]
Times Baseline Response, E^k [17]: 16.4 | Times Baseline Response, E^k [12]: 1.0

Ac-LRMKLP k-NH2 [AE166]
Times Baseline Response, E^k [10]: 3.4 | Times Baseline Response, E^k [5]: 40.4

Ac-LRMKLPK-NH2 [AE114]
Times Baseline Response, E^k [18]: 3.9 | Times Baseline Response, E^k [19]: 15.9 | Times Baseline Response, Ek (Table 3, AE peptide 64 μM, supernatant 1:4, values reduced relative to E^d by a factor of 10): 26.9 | Times Baseline Response, E^k [11]: 26.9 | Times Baseline Response, E^k [13]: 10.7 | Times Baseline Response, E^k [14]: 10.7 | Times Baseline Response, E^k [17]: 13.2 | Times Baseline Response, E^k [10]: 5.2 | Times Baseline Response, E^k (Table 12, AE peptide 1 μM (fourth value), supernatant 1:4): 2.1 | Times Baseline Response, E^k (Table 12, AE peptide 4 μM (third value), supernatant 1:4): 4.9 | Times Baseline Response, E^k (Table 12, AE peptide 16 μM (second value), supernatant 1:4): 19.3 | Times Baseline Response, E^k (Table 12, AE peptide 64 μM (first value), supernatant 1:4): 51.5 | Times Baseline Response, E^k [1]: 2.1 | Times Baseline Response, E^k [2]: 4.9 | Times Baseline Response, E^k [3]: 19.3 | Times Baseline Response, E^k [4]: 51.5 | Times Baseline Response, E^k [5]: 40.3 | Times Baseline Response, E^k [8]: 18.2 | Times Baseline Response, E^k [12]: 1.2 | Times Baseline Response, E^k [15]: 2.8 | Times Baseline Response, E^k [16]: 40.3

Ac-LRMKLPKPPK-NH2 [AE168]
Times Baseline Response, E^k [19]: 4.7, n.d.

Ac-LRMKLPKPPP-NH2 [AE167]
Times Baseline Response, E^k [19]: 3.4, n.d.

Ac-LRMKLPKSAK-NH2 [AE110]
Times Baseline Response, E^k [18]: 2.1 | Times Baseline Response, E^k [19]: 7.6 | Times Baseline Response, E^k [9]: 19.1

Ac-LRMKLP[Cit]-NH2 [AE241]
Times Baseline Response, E^k [17]: 12.2 | Times Baseline Response, E^k [12]: 1.0

Ac-LRMK[Orn]PK-NH2 [AE225]
Times Baseline Response, E^k [14]: 13.9

Ac-LRNKNPF-NH2 [AE348]
Times Baseline Response, E^k [8]: 6.3

Ac-LRNKNPK-NH2 [AE349]
Times Baseline Response, E^k [8]: 6.1

Ac-LR[Orn]KLPK-NH2 [AE195]
Times Baseline Response, E^k [11]: 12.1 | Times Baseline Response, E^k [8]: 19.8

Ac-L[Cit]MKNPK-NH2 [AE342]
Times Baseline Response, E^k [8]: 5.4

Ac-L[Cit]NKLPK-NH2 [AE343]
Times Baseline Response, E^k [8]: 2.9

Ac-NLQLDSLRMKLPKSAK-NH2 [AE150]
Times Baseline Response, E^k [9]: 0.8

Ac-QLDSLRMKLPKSAK-NH2 [AE152]
Times Baseline Response, E^k [9]: 0.4 | activity in simultaneous assay on E^k, in words: inhibition

Ac-SLRMKLPKSAK-NH2 [AE155]
Times Baseline Response, E^k [9]: 8.4

Ac-Y D MKLPKSAK-NH2 [AE135]
Times Baseline Response, E^k [20]: 1.0

Ac-Y E MKLPKSAK-NH2 [AE136]
Times Baseline Response, E^k [20]: 0.7

Ac-Y F MKLPKSAK-NH2 [AE139]
Times Baseline Response, E^k [20]: 1.5

Ac-Y H MKLPKSAK-NH2 [AE133]
Times Baseline Response, E^k [20]: 0.8

Ac-Y K MKLPKSAK-NH2 [AE134]
Times Baseline Response, E^k [20]: 0.9 | Times Baseline Response, E^k [12]: 1.3

Ac-Y L MKLPKSAK-NH2 [AE142]
Times Baseline Response, E^k [20]: 1.0

Ac-Y M MKLPKSAK-NH2 [AE141]
Times Baseline Response, E^k [20]: 1.3

Ac-Y N MKLPKSAK-NH2 [AE137]
Times Baseline Response, E^k [20]: 0.7

Ac-Y Q MKLPKSAK-NH2 [AE138]
Times Baseline Response, E^k [20]: 0.8

Ac-Y Y MKLPKSAK-NH2 [AE140]
Times Baseline Response, E^k [20]: 0.9

Ac-YAMKLPKSAK-NH2 [AE121]
Times Baseline Response, E^k [20]: 1.0 | Times Baseline Response, E^k [6]: 21.6 | Times Baseline Response, E^k [7]: 19.7

Ac-YRM-NH2 [AE118]
Times Baseline Response, E^k [18]: 3.0 | Times Baseline Response, E^k [19]: 5.6

Ac-YRMK-NH2 [AE117]
Times Baseline Response, E^k [18]: 10.6 | Times Baseline Response, E^k [19]: 14.6
